Assays:
rabbit = conditions: Prenatal developmental toxicity study, new zealand white, Oral, Gavage/Intubation, dose end: 19 GD
rat [1] = conditions: Prenatal developmental toxicity study, sprague dawley, Oral, Gavage/Intubation, dose end: 15 GD
rat [2] = conditions: Subchronic oral toxicity in rodents, sprague dawley, Feed, dose end: 90 day, group: systemic, systemic / organ weight / liver / absolute + systemic / organ weight / liver / relative to body weight + systemic / clinical chemistry / …
rat [3] = conditions: Combined chronic toxicity/carcinogenicity, fischer, Oral, Feed, dose end: 24 month, group: systemic
dog [4] = conditions: Subchronic oral toxicity in nonrodent, beagle, Capsule, dose end: 13 week, group: systemic, systemic / organ weight / thyroid gland / absolute + systemic / organ weight / thyroid gland / relative to body weight
dog [5] = conditions: Chronic toxicity, beagle, Oral, Capsule, dose end: 52 week, group: systemic
mouse [6] = conditions: Combined chronic toxicity/carcinogenicity; other; Oral; Feed; dose end: 99 week; group: systemic; systemic / hematology / erythrocyte (rbc) count differential / erythrocyte (rbc) + systemic / hematology / hematocrit (hct) / hematocrit (…
mouse [7] = conditions: Carcinogenicity; cd1; Oral; Feed; dose end: 105 week; group: systemic; systemic / pathology microscopic / liver / adenocarcinoma + systemic / pathology microscopic / liver / adenoma + systemic / pathology …
[8] = group: developmental, developmental / developmental malformation / limb / hyperflexion + systemic / in life observation / body weight / fetal weight + …
[9] = group: maternal, systemic / in life observation / body weight / body weight gain + systemic / in life observation / food consumption / food consumption
[10] = group: maternal, systemic / in life observation / body weight / body weight gain + systemic / in life observation / food consumption / food consumption + …
[11] = group: developmental, developmental / developmental malformation / bone / incomplete ossification + systemic / in life observation / body weight / fetal weight
[12] = group: maternal, systemic / in life observation / body weight / body weight + systemic / in life observation / body weight / body weight gain + reproductive…
[13] = systemic / organ weight / liver / absolute
[14] = systemic / organ weight / liver / absolute + systemic / pathology microscopic / liver / adenocarcinoma + systemic / pathology microscopic / …
[15] = systemic / organ weight / liver / absolute + systemic / organ weight / liver / relative to body weight
[16] = systemic / organ weight / liver / absolute + systemic / organ weight / liver / relative to body weight + systemic / clinical chemistry / …

## CC(C)Oc1cc(-n2nc(C(C)(C)C)oc2=O)c(Cl)cc1Cl [Oxadiazon]
rabbit; [8]
  LEL: 180 mg/kg/day
  LOAEL: 180 mg/kg/day
  NEL: 60 mg/kg/day
  NOAEL: 60 mg/kg/day
rabbit; [9]
  LEL: 60 mg/kg/day
  LOAEL: 60 mg/kg/day
rabbit; [10]
  NEL: 20 mg/kg/day
  NOAEL: 20 mg/kg/day
Rat [1]; [11]
  LEL: 40 mg/kg/day
  LOAEL: 40 mg/kg/day
  NEL: 12 mg/kg/day
  NOAEL: 12 mg/kg/day
Rat [1]; group: maternal, systemic / in life observation / body weight / body weight + systemic / in life observation / body weight / body weight gain
  LOAEL: 40 mg/kg/day
Rat [1]; [12]
  LEL: 40 mg/kg/day
  NEL: 12 mg/kg/day
  NOAEL: 12 mg/kg/day
Rat [2]
  LEL: 100 mg/kg/day
  LOAEL: 100 mg/kg/day
  NEL: 25 mg/kg/day
  NOAEL: 25 mg/kg/day
Rat [3]; [13]
  LEL: 4.8 mg/kg/day
  LOAEL: 4.8 mg/kg/day
Rat [3]; [14]
  NEL: 0.5 mg/kg/day
  NOAEL: 0.5 mg/kg/day
Dog [4]
  LEL: 25 mg/kg/day
  LOAEL: 25 mg/kg/day
  NEL: < 25 mg/kg/day
  NOAEL: < 25 mg/kg/day
Dog [5]; [15]
  LEL: 20 mg/kg/day
  LOAEL: 20 mg/kg/day
Dog [5]; [16]
  NEL: 5 mg/kg/day
  NOAEL: 5 mg/kg/day
Mouse [6]
  LEL: 0.315 mg/kg/day
  LOAEL: 10.6 mg/kg/day
  NEL: < 0.315 mg/kg/day
  NOAEL: 1.09 mg/kg/day
Mouse [7]
  LEL: 12 mg/kg/day
  LOAEL: 12 mg/kg/day
  NEL: < 12 mg/kg/day
  NOAEL: < 12 mg/kg/day
